The values below come from patent US8501166B2, “Pyrimidinyl indole compounds” (Hutchison Medipharma Limited, priority 2010, dated 2013).

For assay [1], the system named is LPS-induced joint TNFα production. The assay is described as follows: LPS-induced acute joint inflammation in rat. In kind it is in vivo, Wistar rats. The settings on record: oral 1 h before intra-articular LPS 10 μg. On the procedure:
To further investigate the effects of IKKβ inhibitor on mechanism-relevant joint inflammation, the compound is screened for its ability to inhibit the LPS-induced joint acute inflammation in rat essentially as describe by a method reported in the literature (Matsukawa A, Yoshimura T, Miyamoto K, Ohkawara S, Yoshinaga M. Lab Invest. 1997, 76(5):629-38). Briefly, Wistar rats (female, body weight 150 g-170 g) are used in the experiments Animals (8/group) are given 1 to 100 mg/kg of the test compound [suspension in 35% Solutol (Macrogol 15 Hydroxystearate) & 60% PEG400 & 5% PG (propylene glycol)] or vehicle by oral gavage at 1 h prior to intra-articular (i.a.) administration of 10 μg of LPS in 10 μL of saline on left hind knee of each rat, using a 26-gauge needle. The right hind knee of each rat is injected with 10 μL of saline as a control. Two hour after LPS injection, each […] of the rats is lavaged with 100 μL of saline. The synovial fluids are collected and stored at -80° C. The […] is diluted 2 fold with the dilution buffer and 50 μL of the diluted sample is used for the measurement of TNFα levels using R&D System ELISA Kit based on the general Kit protocol. The plate is read on a SPECTRAMAX® M2e Plus Plate Reader and TNFα levels are analyzed using a standard curve. The drug levels are also measured by liquid chromatography-tandem mass spectrometry (LC-MS-MS).

Assay [2] relates to LPS-induced plasma TNFα production. The assay is described as follows: LPS-induced plasma cytokine production in mouse, TNFα. The assay is classed as in vivo, Balb/c mice. How it is done:
Balb/c mice (female, body weight from 18 to 20 g) are used in these experiments. The dose dependency, time course study and pharmacokinetic/pharmacodynamic relationship of the test compound are conducted in mice treated with LPS (0.4 mg/kg).
Eight mice/group are administrated with 1 to 100 mg/kg of either the test compound (suspension in 10% acacia) or vehicle by oral gavage at 1 h prior to intraperitoneal injection of 0.4 mg/kg LPS. Ninety minutes after LPS administration, blood samples are collected in tubes containing heparin for anticoagulation. Plasma samples are diluted 3-fold with dilution buffer (R&D, Cat.No. Part 895206, Calibrator Diluent RD5Z). TNFα levels are measured using ELISA kit (R&D, Cat.No. MTA00) based on manufacture's protocol. Data is acquired using a SPECTRAMAX® M2e Plus Plate Reader and analyzed by standard curve fitting.
Alternately, the compound is screened for its ability to inhibit the LPS-induced cytokine production in rat plasma according to the method reported in the literature (Ziegelbauer K, Gantner F, Lukacs N W, et al. Br J. Pharmacol. 2005,145(2):178-92). Briefly, Lewis rats (male, body weight 140 g-180 g) are used in the experiments. Animals (8/group) are given 1 to 100 mg/kg of the testing compound (suspension in 35% solutol & 60% PEG400 & 5% PG) or vehicle by oral gavage at 1 h prior to intraperitoneal administration of LPS 0.4 mg/kg. Ninety minutes after the intraperitoneal administration of LPS, blood is collected in heparin anticoagulated tubes to measure TNFα using R&D System ELISA Kit based on the general Kit protocols. The plasma sample is diluted 100 fold with the dilution buffer and 50 μL of diluted sample is used in each measurement. The plate is read on a SPECTRAMAX® M2e Plus Plate Reader and TNFα levels are analyzed based on the standard curve. The drug levels in plasma are measured with LC-MS-MS. […] Alternately, the compound is screened for its ability to inhibit the LPS-induced cytokine production in mouse plasma. Balb/c mice (female, body weight 18-20 g) are used in the experiments. Mice (8/group) are administrated with 1 to 100 mg/kg of the test compound (suspension in 10% acacia) or vehicle by oral gavage at 1 h prior to introperitoneal (i.p.) administration of LPS (0.4 mg/kg). Ninety minutes after LPS administration, blood is collected with heparin anticoagulated tubes to measure TNFα levels (R&D, Cat.No. MTA00), IL-6 (R&D, Cat.No. M6000B) and IL-1β (R&D, Cat.No. MLB00B) based on the general kit protocols. Diluted or undiluted plasma samples of 50 μL are used for each measurement. […] The plate is read on a SPECTRMAX® M2e Plus Plate Reader and the data is analyzed using a standard curve.

For assay [3], the system named is TNFα gene expression in U87MG xenograft. Briefly: Inhibition of TNFα induced TNFα gene expression in U87MG xenograft. The assay is classed as in vivo, Balb/c athymic nude mice. On the procedure: TNFα stimulates IKKβ signaling and triggers TNFα gene expression. In order to confirm that a compound is targeting IKKβ in vivo, the compound is screened for its ability to inhibit TNFα induced TNFα gene expression in a U87MG (human glioblastoma cell line) xenograft. 3×10^6 U87MG tumor cells are implanted subcutaneously into the right lateral flank of female Balb/c athymic nude mice (6-8 weeks old). […] Nude mice are orally administered with the test compound at 2 h prior to tumor harvesting. TNFα (R&D, Cat: 210-TA) is intravenously injected at 1 h before tumor harvesting at 8 μg/kg.
Total RNA is extracted using the RNEASY® mini Kit (QIAGEN®, Cat: 74126). cDNA is synthesized using the High Capacity cDNA reverse transcription kit (ABI, Cat: 4368813). Quantitative real-time PCR is carried out in a 7500 real-time PCR system (Applied Biosystems) using the corresponding primers/probes for human GAPDH gene(ABI Hs99999905_ml) and human TNFα gene(ABI Hs00174128_ml) and ABgene Absolute QPCR ROX 2× master mix(AB-1139/B).
TNFα gene expression is normalized to β-actin gene expression. The gene counts are read from PCR machine Inhibition (%)=(Counts of Model—Counts of Treatment)/(Counts of Model-Counts of Control)×100%. Example 1 is specifically detailed in Table 3.

Where [4] appears, read: mouse, oral 1 h before LPS 0.4 mg/kg i.p.

Where a name gives a salt, the structure may show the parent alone.

By ED50 is commonly meant the dose at which the effect has come halfway, by size or by number of responders. A low value points to greater potency. Broadly, the EC50 is the concentration that produces a half-maximal response. The low end stands for a more potent agent, the high end for a less potent agent. In the case of `Cl.O=C(NC1CC1)c1cccc2[nH]c(-c3nc(N[C@@H]4CCC[C@H]4O)ncc3Cl)cc12` [Example 2, 2-{5-Chloro-2-[(1R,2R)-2-hydroxycyclopentylamino]pyrimidin-4-yl}-N-cyclopropyl-1H-indole-4-carboxamide hydrochloride], the figures for the ED50 in assay [1] and in assay [2] (setting [4]) were 23.4 mg/kg and 4.84 mg/kg, respectively. In assay [2] (setting [4]), this compound displayed a concentration giving a half-maximal response (EC50) of roughly 2.42 µg/mL. Also, the “Inhibition Rate (%) of TNFα induced TNFα gene expression” value in assay [3] (Table 4, 3 mg/kg oral) is recorded as 10.7%; in assay [3] (Table 4, 10 mg/kg oral), 25.3%; in assay [3] (Table 4, 30 mg/kg oral) it was 69.7%; in assay [3] (Table 4, 60 mg/kg oral), 87.8%.

Broadly, the inhibition is the share of the control response that was lost under treatment. Higher therefore signals strong suppression. Regarding `O=C(NC1CC1)c1cccc2[nH]c(-c3nc(N[C@@H]4CCC[C@@H]4O)ncc3Cl)cc12` [Example 1, 2-{5-Chloro-2-[(1R,2S)-2-hydroxycyclopentylamino]pyrimidin-4-yl}-N-cyclopropyl-1H-indole-4-carboxamide hydrochloride], the “plasma TNFα level” value in assay [2] (10 mg/kg oral 1 h before LPS 0.4 mg/kg, 90 min after LPS, baseline 2346.2 pg/mL) is 1474.9 pg/mL. The same compound came in with an inhibition at 10 mg/kg in assay [2] (Mus musculus, 10 mg/kg oral 1 h before LPS 0.4 mg/kg, p<0.01) of 37.1%. In addition, the “Inhibition Rate (%) of TNFα induced TNFα gene expression” value stood at 49.1% in assay [3] (10 mg/kg oral, 2 h); 68.5% in assay [3] (30 mg/kg oral, 2 h); 86.2% in assay [3] (60 mg/kg oral, 2 h); 94.9% in assay [3] (100 mg/kg oral, 2 h).
